Results on one compound are retold here after US5652250A, “N-substituted β-aryl- and β-heteroaryl-α-cyanoacrylamide derivatives and process for their preparation” (Pharmacia S.p.A., priority 1994, dated 1997).

In experiment [1] the target is p45 v-abl tyrosine kinase. Put plainly: p45 v-abl Kinase Assay ((Val^5)-Angiotensin II phosphorylation). The format is biochemical, Abelson murine leukemia virus. The following applies: (Val^5)-Angiotensin II 2 mM, ATP 50 μM, pH 8.0, 30° C., read-out: Inhibition of p45 v-abl kinase IC50. The protocol: The enzyme used in our test was the p45 v-abl tyrosine kinase which represents the catalytic domain of the Abelson tyrosine kinase (isolated from the Abelson murine leukemia virus). The p45 v-abl kinase was produced and isolated as described by Wang et al. in J. Biol. Chem. 260, 64 (1985) and by Ferguson et al. in J. Biol. Chem. 260, 3652 (1985) and in Biochem. J. 257, 321 (1989).
(Val^5)-Angiotensin II phosphorylation was performed by incubation with 40 ng of purified abl-kinase and (γ^32 P)-ATP, in 50 μl of buffer containing Tris-HCl 25 mM, pH 8.0, MgCl2 10 mM and dithiothreitol 0.1 mM (kinase buffer). The reaction mixture was incubated for the indicated time at 30° C. and the reaction stopped by adding 50 μl of 5% trichloroacetic acid. After a brief incubation on ice, tubes were centrifuged. The supernatants were spotted on phosphocellulose paper squares (Whatman P-81) and washed extensively in acetic acid. The radioactivity bound to dried phosphocellulose squares was measured in a liquid scintillation counter. IC50 values were calculated from triplicate determinations of each experimental point. Each inhibitor was tested at concentrations ranging from […] in the presence of fixed concentrations of peptide (2 mM) and ATP (50 μM).

In another experiment the test system is K562 cells. Put plainly: K562 Cell Growth Inhibition Assay. The format is cell-based. To be noted: K562 human myelogenous leukemia cells, 72 h. The protocol: K562 cells, a human myelogenous leukemia cell line, were seeded into a 24 wells tissue culture plate (Falcon 3047) (10000/well) in the presence of increasing concentrations of the compounds. After 72 h, cells were harvested and were counted using a cell counter (Coulter Counter--ZM). The percent of inhibition was evaluated in respect to the untreated control cells.

pIC50: −log10 of the molar value.

In general, pIC50 refers to the IC50 on a negative log10 scale, so that one unit is a factor of ten. Turning to `N#CC(=Cc1ccc(O)c2ncccc12)C(=O)Nc1ccccc1` [N-phenyl β-(8-hydroxy-5-quinolyl)-α-cyanoacrylamide], the values for the pIC50 (in experiment [1]; in the experiment on K562 cells) were 5.47 and 6.18, respectively.
